Assay [1] concerns the target T1, ACE-2 (Homo sapiens, UniProt Q9BYF1).
T1 construct: a stop codon inserted after the serine immediately preceding the transmembrane domain; made in house; host or cells: CHO K1 cells (transient transfection, purified from conditioned medium)
The experiment in a line: ACE-2 Competitive Substrate Assay (ACS Assay). The format is biochemical.

The target of assay [2] is ACE-2 (Rattus norvegicus, UniProt Q5EGZ1). The experiment in a line: ACE-2 Competitive Substrate Assay, rat ACE-2. The format is biochemical. Conditions: Ki class; compounds tested in 5% DMSO, 12 compound concentrations.
ACE-2 (Rattus norvegicus, UniProt Q5EGZ1), sequence (Q5EGZ1 18-805): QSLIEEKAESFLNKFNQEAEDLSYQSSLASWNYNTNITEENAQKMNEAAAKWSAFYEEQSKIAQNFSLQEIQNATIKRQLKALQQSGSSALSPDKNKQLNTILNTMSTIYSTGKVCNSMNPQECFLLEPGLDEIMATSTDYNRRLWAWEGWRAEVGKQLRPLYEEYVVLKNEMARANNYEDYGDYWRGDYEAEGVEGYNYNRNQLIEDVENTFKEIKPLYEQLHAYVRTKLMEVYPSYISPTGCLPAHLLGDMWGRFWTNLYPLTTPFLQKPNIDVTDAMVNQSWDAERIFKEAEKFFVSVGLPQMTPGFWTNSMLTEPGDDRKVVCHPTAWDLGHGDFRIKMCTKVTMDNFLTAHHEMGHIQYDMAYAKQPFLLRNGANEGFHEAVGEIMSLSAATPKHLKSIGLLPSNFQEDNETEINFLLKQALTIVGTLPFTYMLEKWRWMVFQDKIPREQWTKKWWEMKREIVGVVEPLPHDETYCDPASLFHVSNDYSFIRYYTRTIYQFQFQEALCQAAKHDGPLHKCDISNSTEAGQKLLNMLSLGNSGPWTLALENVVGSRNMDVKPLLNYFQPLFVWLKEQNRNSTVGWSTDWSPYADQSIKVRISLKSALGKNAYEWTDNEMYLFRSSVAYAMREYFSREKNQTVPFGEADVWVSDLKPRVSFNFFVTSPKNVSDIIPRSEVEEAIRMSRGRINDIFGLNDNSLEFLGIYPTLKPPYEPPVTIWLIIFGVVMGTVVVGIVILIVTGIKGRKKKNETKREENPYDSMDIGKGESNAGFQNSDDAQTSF
Description: ACE-2 enzymatic activity was assayed in microtitre plates by the following procedure. The ACE-2 assay buffer used contained 50 mM MES (Boehringer-Mannheim), 300 mM NaCl (Sigma) and 0.01% Brij-35 (Pierce Chemical Co.) at pH 6.5.
Reactions were mixed and incubated at 25° C.
The activity of the test compounds was investigated using the procedure outlined above. The compounds were tested in 5% DMSO. Enzyme activity was measured at 12 compound concentrations.
Assay [3] concerns the target T2, ACE (Sigma, A2580) (Sus scrofa, UniProt F1RRW5).
T2 construct: ACE from porcine kidney; purchased Sigma A2580; host or cells: porcine kidney
T2 sequence (F1RRW5 34-1309): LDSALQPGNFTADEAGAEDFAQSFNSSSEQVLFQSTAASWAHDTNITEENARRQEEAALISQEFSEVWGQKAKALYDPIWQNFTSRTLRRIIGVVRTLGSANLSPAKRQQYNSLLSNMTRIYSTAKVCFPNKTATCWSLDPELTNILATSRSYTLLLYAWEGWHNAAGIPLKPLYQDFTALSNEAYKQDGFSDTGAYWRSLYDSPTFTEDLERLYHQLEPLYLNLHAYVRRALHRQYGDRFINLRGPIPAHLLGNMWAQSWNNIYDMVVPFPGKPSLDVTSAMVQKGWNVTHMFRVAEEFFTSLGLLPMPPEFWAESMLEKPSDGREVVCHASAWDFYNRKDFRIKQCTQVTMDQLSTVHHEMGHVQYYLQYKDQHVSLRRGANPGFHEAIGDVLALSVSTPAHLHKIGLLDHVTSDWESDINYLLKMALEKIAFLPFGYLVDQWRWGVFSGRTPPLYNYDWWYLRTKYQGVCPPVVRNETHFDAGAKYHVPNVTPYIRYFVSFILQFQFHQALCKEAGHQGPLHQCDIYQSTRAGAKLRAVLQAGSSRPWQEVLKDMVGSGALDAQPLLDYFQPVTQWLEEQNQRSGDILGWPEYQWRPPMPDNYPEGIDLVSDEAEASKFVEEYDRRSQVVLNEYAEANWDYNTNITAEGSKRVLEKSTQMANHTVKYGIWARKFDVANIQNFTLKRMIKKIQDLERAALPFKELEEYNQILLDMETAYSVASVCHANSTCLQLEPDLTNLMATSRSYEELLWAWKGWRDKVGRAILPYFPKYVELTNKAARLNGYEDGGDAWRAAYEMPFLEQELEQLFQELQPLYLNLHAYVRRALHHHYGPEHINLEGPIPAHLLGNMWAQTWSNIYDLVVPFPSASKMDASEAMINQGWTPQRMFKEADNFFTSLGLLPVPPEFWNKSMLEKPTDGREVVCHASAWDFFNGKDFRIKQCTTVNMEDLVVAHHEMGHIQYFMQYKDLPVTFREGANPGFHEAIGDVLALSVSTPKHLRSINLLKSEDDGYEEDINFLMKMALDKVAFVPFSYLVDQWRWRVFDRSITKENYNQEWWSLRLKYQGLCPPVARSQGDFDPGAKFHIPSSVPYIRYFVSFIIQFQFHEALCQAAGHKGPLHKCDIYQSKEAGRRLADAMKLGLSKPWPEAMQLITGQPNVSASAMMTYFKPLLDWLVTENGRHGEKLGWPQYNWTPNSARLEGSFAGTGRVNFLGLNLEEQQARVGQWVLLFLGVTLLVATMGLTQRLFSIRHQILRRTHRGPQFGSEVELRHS
The experiment in a line: ACE enzymatic activity assay. The format is biochemical, porcine. Conditions: Ki class; compounds tested in 5% DMSO, 12 concentrations. The method, boiled down:
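Fluorogenic substrate cleavage by 1 nM ACE, read at 320/405 nm after EDTA stop at ~30 min. Reactions at 25 °C, pH 7.5, in HEPES/NaCl/Brij-35 buffer; compounds tested at 12 concentrations in 5% DMSO.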

The target in assay [4] is T3, Carboxypeptidase A (Bos taurus, UniProt P00730).
T3 sequence (P00730 111-419): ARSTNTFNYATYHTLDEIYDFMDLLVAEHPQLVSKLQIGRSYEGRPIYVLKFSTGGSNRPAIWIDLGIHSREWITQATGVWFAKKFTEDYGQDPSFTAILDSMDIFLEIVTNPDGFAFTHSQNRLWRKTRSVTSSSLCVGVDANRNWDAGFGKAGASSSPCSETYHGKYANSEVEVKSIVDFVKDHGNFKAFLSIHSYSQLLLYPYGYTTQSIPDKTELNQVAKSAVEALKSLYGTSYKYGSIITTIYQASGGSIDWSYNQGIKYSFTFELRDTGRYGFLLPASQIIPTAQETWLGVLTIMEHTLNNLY
The experiment in a line: Carboxypeptidase A activity assay. The format is biochemical. Conditions: Ki class; compounds tested in 5% DMSO, 12 concentrations. The method, boiled down:
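Ki obtained by correcting apparent Ki for substrate, Ki=Kiapp/(1+[S]/Km), from 12-concentration series. Enzyme activity read by absorbance at 328 nm with 5% DMSO present, EDTA stop.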

Setting [5] is: Ki class, compounds tested in 5% DMSO, 12 compound concentrations, Ki=Kiapp/(1+[S]/Km), read-out: Human ACE-2 Activity.
The mark [6] stands for this setting: Table 3, very good ACE-2 inhibiting compounds, species not given, read-out: ACE-2 Activity, Ki.
Where [7] appears, read: Ki class, compounds tested in 5% DMSO, 12 concentrations, read-out: Human ACE-2 Activity.

The record followed here is patent publication US7045532B2 (Millennium Pharmaceuticals, Inc., priority 1999, dated 2006).

Read-outs that look alike come from different tables or passages of the source.

T1 sequence (Q9BYF1 18-740 limits assumed): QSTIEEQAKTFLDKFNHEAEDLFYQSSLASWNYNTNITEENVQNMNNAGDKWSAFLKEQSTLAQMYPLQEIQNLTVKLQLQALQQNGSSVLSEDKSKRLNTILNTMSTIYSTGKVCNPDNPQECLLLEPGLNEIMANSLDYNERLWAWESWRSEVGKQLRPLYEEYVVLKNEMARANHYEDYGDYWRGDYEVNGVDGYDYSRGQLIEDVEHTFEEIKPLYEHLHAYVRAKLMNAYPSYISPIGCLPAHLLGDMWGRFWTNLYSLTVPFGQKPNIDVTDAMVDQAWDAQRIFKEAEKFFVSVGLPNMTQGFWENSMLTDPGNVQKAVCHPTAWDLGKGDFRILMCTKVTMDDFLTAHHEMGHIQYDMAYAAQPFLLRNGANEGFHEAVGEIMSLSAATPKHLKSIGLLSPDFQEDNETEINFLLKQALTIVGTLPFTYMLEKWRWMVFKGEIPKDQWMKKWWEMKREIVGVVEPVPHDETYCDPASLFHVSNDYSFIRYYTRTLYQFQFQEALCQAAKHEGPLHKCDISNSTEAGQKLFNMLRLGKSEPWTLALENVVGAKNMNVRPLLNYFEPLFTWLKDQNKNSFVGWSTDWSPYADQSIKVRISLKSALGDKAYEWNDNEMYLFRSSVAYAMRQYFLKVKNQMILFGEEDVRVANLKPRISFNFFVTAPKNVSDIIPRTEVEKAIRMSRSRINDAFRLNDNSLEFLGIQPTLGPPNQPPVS

`CC(C)CC(N[C@@H](Cc1cncn1Cc1ccc(F)cc1)C(=O)O)C(=O)O` (single isomer, unassigned) [II, 2-[1-Carboxy-2-[3-(4-fluoro-benzyl)-3H-imidazol-4-yl]-ethylamino]4-methyl-pentanoic acid]: the Ki was below 100 nM in assay [1] (setting [5]), 50 to 100 nM in assay [1] (setting [6]) and below 100 nM in assay [2].

As to `CC(C)CC(N[C@@H](Cc1cncn1Cc1cccc(Cl)c1Cl)C(=O)O)C(=O)O` (single isomer, unassigned) [IX, 2-[1-Carboxy-2-[3-(2,3-dichloro-benzyl)-3H-imidazol-4-yl]-ethylamino]4-methyl-pentanoic acid], the figures for the Ki in assay [1] (setting [5]), in assay [1] (setting [6]) and in assay [2] were above 500 nM, below 50 nM and below 100 nM, respectively.

On to `CC(C)CC(N[C@@H](Cc1cncn1Cc1cccc(C(F)(F)F)c1)C(=O)O)C(=O)O` (single isomer, unassigned) [IZ, 2-[1-Carboxy-2-[3-(3-trifluoromethyl-benzyl)-3H-imidazol-4-yl]-ethylamino]4-methyl-pentanoic acid], for which the Ki is below 100 nM in assay [1] (setting [5]), below 50 nM in assay [1] (setting [6]) and below 100 nM in assay [2].

In the case of `CC(C)CC(N[C@@H](Cc1cncn1Cc1cc(Cl)ccc1Cl)C(=O)O)C(=O)O` (single isomer, unassigned) [JB, 2-[1-Carboxy-2-[3-(2,5-dichloro-benzyl)-3H-imidazol-4-yl]-ethylamino]4-methyl-pentanoic acid], the Ki in assay [1] (setting [5]) was below 100 nM; in assay [1] (setting [6]), below 50 nM; in assay [2], below 100 nM.

For the molecule `CC(C)CC(N[C@@H](Cc1cncn1Cc1ccc2c(c1)OCO2)C(=O)O)C(=O)O` (single isomer, unassigned) [JE], the Ki in assay [1] (setting [5]) is below 100 nM; in assay [1] (setting [6]) it was below 50 nM; in assay [2], below 100 nM.

Consider `CC(C)CC(N[C@@H](Cc1cncn1CCC1CCCCC1)C(=O)O)C(=O)O` (single isomer, unassigned) [JI, 2-[1-Carboxy-2-[3-(2-cyclohexyl-ethyl)-3H-imidazol-4-yl]-ethylamino]4-methyl-pentanoic acid], for which the values for the Ki in assay [1] (setting [5]), in assay [1] (setting [6]) and in assay [2] were below 100 nM, below 50 nM and below 100 nM, respectively.

`CC(C)CC(N[C@@H](Cc1cncn1CCc1ccccc1)C(=O)O)C(=O)O` (single isomer, unassigned) [JK, 2-[1-Carboxy-2-[3-phenethyl-3H-imidazol-4-yl)-ethylamino]-4-methyl-pentanoic acid]: the Ki in assay [1] (setting [5]) and in assay [2] was below 100 nM in each case.

For the molecule `CC(C)CC(N[C@@H](Cc1cncn1Cc1cccc(I)c1)C(=O)O)C(=O)O` (single isomer, unassigned) [JO, 2-[1-Carboxy-2-[3-(3-iodobenzyl)-3H-imidazol-4-yl]-ethylamino]-4-methyl-pentanoic acid], the results for the Ki in assay [1] (setting [5]), in assay [1] (setting [6]) and in assay [2] were below 100 nM, below 50 nM and below 100 nM, respectively.

Consider `CC(C)CC(N[C@@H](Cc1cncn1Cc1cccc(F)c1)C(=O)O)C(=O)O` (single isomer, unassigned) [JQ, 2-[1-Carboxy-2-[3-(3-fluoro-benzyl)-3H-imidazol-4-yl]-ethylamino]4-methyl-pentanoic acid], for which the Ki in assay [1] (setting [5]) is below 100 nM; in assay [1] (setting [6]), below 50 nM; in assay [2], below 100 nM.

For `CC(C)CC(N[C@H](CC(=O)O)Cc1cccs1)C(=O)O` (some centres unmarked) [EI, 2-(1-Carboxymethyl-2-thiophen-2-yl-ethylamino)-4-methyl-pentanoic acid], the Ki was above 500 nM in assay [1] (setting [7]), above 50000 nM in assay [3] and above 50000 nM in assay [4].

In the case of `O=C(O)C(Cc1ccccc1)N[C@@H](Cc1cnc[nH]1)C(=O)O` (some centres unmarked) [EK, 2-(1-Carboxy-2-phenyl-ethylamino)-3-(3H-imidazol-4-yl)-propionicacid], the Ki is above 500 nM in assay [1] (setting [7]), 10000 to 50000 nM in assay [3] and 10000 to 50000 nM in assay [4].

Take `COc1ccc(C#CC[C@H](N[C@@H](CCc2ccccc2)C(=O)O)C(=O)O)cc1` [FR, 2-(1-Carboxy-3-phenyl-propylamino)-5-(4-methoxy-phenyl)-pent-4-ynoic acid]: the Ki in assay [1] (setting [7]) is above 500 nM; in assay [3] it was above 50000 nM; in assay [4], above 50000 nM.

As to `CC(C)CC(N[C@@H](Cc1csc(-c2ccccc2)n1)C(=O)O)C(=O)O` (some centres unmarked) [IL, 2-[1-Carboxy-2-(2-phenyl-thiazol-4-yl)-ethylamino]-4-methyl-pentanoic acid], the values for the Ki in assay [1] (setting [5]), in assay [1] (setting [6]) and in assay [2] were 100 to 500 nM, 50 to 100 nM and below 100 nM, respectively.

In the case of `CC(N[C@@H](Cc1c[nH]cn1)C(=O)O)C(=O)O` (some centres unmarked) [N, 2-(1-Carboxy-ethylamino)-3-(1H-imidazol-4-yl)-propionic acid], the Ki in assay [1] (setting [7]) was above 500 nM; in assay [3], above 50000 nM; in assay [4] it was above 50000 nM.

Regarding `C[C@H](N[C@@H](CCc1ccccc1)C(=O)O)C(=O)O` [P, 2-(1-Carboxy-ethylamino)-4-phenyl-butync acid], the figures for the Ki in assay [1] (setting [7]), in assay [3] and in assay [4] were above 500 nM, above 50000 nM and above 50000 nM, respectively.

Regarding `CCCCC(N[C@@H](CC(C)C)C(=O)O)C(=O)O` (some centres unmarked) [Q, 2-(1-Carboxy-3-methyl-butylamino)-hexanoic acid], the Ki in assay [1] (setting [7]) is above 500 nM; in assay [3], above 50000 nM; in assay [4] it was above 50000 nM.

As to `CC(C)C[C@H](N[C@H](Cc1ccccc1)C(=O)O)C(=O)O` [T, 2-(1-Carboxy-2-phenyl-ethylamino)-4-methyl-pentanoic acid], the Ki is above 500 nM in assay [1] (setting [7]), above 50000 nM in assay [3] and 10000 to 50000 nM in assay [4].

Consider `CC(C)C[C@@H](C(=O)O)N(C)C(CCc1ccccc1)C(=O)O` (some centres unmarked) [V, 2-[(1-Carboxy-3-phenyl-propyl)-methyl-amino]-4-methyl-pentanoic acid], for which the Ki in assay [1] (setting [7]) was above 500 nM; in assay [3], above 50000 nM; in assay [4], above 50000 nM.

As to `CCC(NC(Cc1c[nH]c2ccccc12)C(=O)O)C(=O)O` (centres unmarked) [W, 2-[1-Carboxy-2-(1H-indol-3-yl)-ethylamino]-butync acid], the Ki in assay [1] (setting [7]) was above 500 nM; in assay [3], above 50000 nM; in assay [4], above 50000 nM.

For the molecule `CCCC(N[C@H](Cc1c[nH]c2ccccc12)C(=O)O)C(=O)O` (some centres unmarked) [X, 2-[1-Carboxy-2-(1H-indol-3-yl)-ethylamino]-pentanoic acid], the Ki in assay [1] (setting [7]) is above 500 nM; in assay [3] it was above 50000 nM; in assay [4] it was above 50000 nM.

Consider `CSCC[C@H](NC(CCc1ccccc1)C(=O)O)C(=O)O` (some centres unmarked) [Y, 2-(1-Carboxy-3-methylsulfanyl-propylamino)-4-phenyl-butync acid], for which the Ki is above 500 nM in assay [1] (setting [7]), above 50000 nM in assay [3] and above 50000 nM in assay [4].

As for `CCC(N[C@@H](CCSC)C(=O)O)C(=O)O` (some centres unmarked) [Z, 2-(1-Carboxy-propylamino)-4-methylsulfanyl-butyncacid], the Ki in assay [1] (setting [7]) was above 500 nM; in assay [3], above 50000 nM; in assay [4], above 50000 nM.
